Publication PMC4615937 (FEBS Open Bio, 2015)
Changes are numbered by the printed parent chain.

Tests used:
Assay type in all cases: binding
[1] = target: T1, wild-type mALAS2 (murine erythroid 5-aminolevulinate synthase) (Mus musculus, UniProt P08680); experiment: intrinsic protein fluorescence quenching titration
T1 sequence (P08680 79-587): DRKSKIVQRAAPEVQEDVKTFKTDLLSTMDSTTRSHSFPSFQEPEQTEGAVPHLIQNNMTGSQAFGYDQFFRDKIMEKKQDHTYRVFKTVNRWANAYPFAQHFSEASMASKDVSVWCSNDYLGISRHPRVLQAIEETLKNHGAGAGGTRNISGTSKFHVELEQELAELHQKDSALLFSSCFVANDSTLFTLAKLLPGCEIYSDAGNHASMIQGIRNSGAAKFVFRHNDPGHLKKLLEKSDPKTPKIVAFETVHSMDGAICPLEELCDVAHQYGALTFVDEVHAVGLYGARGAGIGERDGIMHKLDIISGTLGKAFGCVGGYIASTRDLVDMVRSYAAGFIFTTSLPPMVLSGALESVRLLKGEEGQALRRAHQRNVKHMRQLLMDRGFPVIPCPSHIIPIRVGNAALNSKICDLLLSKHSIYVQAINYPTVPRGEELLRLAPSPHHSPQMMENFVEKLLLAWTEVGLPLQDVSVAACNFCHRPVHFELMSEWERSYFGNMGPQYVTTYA

[2] = target: T2, wild-type mALAS2 (murine erythroid 5-aminolevulinate synthase) (Mus musculus, UniProt P08680, K299V); experiment: intrinsic protein fluorescence quenching titration
T2 sequence (P08680 79-587 K299V): T1 sequence (P08680 79-587) with K221V

[3] = target: T1, wild-type mALAS2 (murine erythroid 5-aminolevulinate synthase); settings: half-maximal protection; 50 mM phosphate pH 7.5, 10% glycerol, 18 °C; no glycine

Row | SMILES | Kd [1] | Kd [2] | K′ [3]
1 | CC(C)(COP(=O)(O)OP(=O)(O)OC[C@H]1O[C@@H](n2cnc3c(N)ncnc32)[C@H](O)[C@@H]1OP(=O)(O)O)[C@@H](O)C(=O)NCCC(=O)NCCS [CoA] | 302 ± 12 µM | 431 ± 17 µM | 
2 | CC(C)(COP(=O)(O)OP(=O)(O)OC[C@H]1O[C@@H](n2cnc3c(N)ncnc32)[C@H](O)[C@@H]1OP(=O)(O)O)[C@@H](O)C(=O)NCCC(=O)NCCSC(=O)CCC(=O)O [succinyl-CoA] | 297 ± 7 µM | 223 ± 8 µM | 261 ± 75 µM
